In patent publication US20140158116A1, “INHIBITING TRPA1 FOR THE TREATMENT OF ASTHMA” (Cubist Pharmaceuticals, Inc., priority 2012, published 2014):

Test system: airway hyper-responsiveness to Carbachol
Test: Sheep allergic asthma model, airway hyper-responsiveness (PC400) to Carbachol
Format: in vivo
Conditions: 24 hour post-challenge Carbachol
Protocol: Compounds were tested in the sheep model of experimental asthma reported in Abraham W M, Asthma & Rhinitis, 2000: 1205-1227 incorporated herein by reference in its entirety.
The unsedated sheep were restrained in a cart in the prone position with their heads immobilized. After topical anesthesia of the nasal passages with 2% lidocaine solution, a balloon catheter was advanced through one nostril into the lower esophagus. The sheep were intubated with a cuffed endotracheal tube through the other nostril. Pleural pressure was estimated with the esophageal balloon catheter. Lateral pressure in the trachea was measured with a sidehole catheter (inner dimension, 2.5 mm) advanced through and positioned distal to the tip of the endotracheal tube. Transpulmonary pressure, the difference between tracheal and pleural pressure, was measured with a differential pressure transducer catheter system. For the measurement of pulmonary resistance (RL), the proximal end of the endotracheal tube was connected to a pneumotachograph. […]
Baseline concentration response curves to aerosol Carbachol were obtained 1 to 3 days before commencement of drug/vehicle treatment. […] Baseline values of pulmonary resistance (RL) were obtained within 30 minutes of treatment and then re-measured 30 minutes before antigen challenge. […]

C[C@H]1CCCN1c1ncc(-c2cccc(NC(=O)Cn3cnc4c3c(=O)n(C)c(=O)n4C)n2)cn1 [Formula (Ia)]
airway hyper-responsiveness (PC400), relative to baseline (5 mg/kg PO): 100%
airway hyper-responsiveness (PC400), relative to baseline (10 mg/kg PO): 100%
